Laboratory results taken from patent publication US20110293757A1, “Compositions Comprising Tea Tree Oil and Methods for the Prevention and Treatment of Cancer” (priority 2008, published 2011).

What was measured:
AE17 mesothelioma = test: Topical treatment of subcutaneous murine AE17 mesothelioma tumours, tumour area by micro-callipers; type: in vivo, C57BL/6J mice; details: 50 ul topically; 4% terpinen-4-ol, 2% γ-terpinene, 1% α-terpinene, 0.5% 1,8-cineole, 0.5% p-cymene; vs untreated controls
Description: The models used, murine AE17 mesothelioma and murine B16 melanoma tumour, both involve the implantation of tumour cell lines subcutaneously onto the rear flank of fully immuno-competent mice. Palpable tumours arise within 3-14 days.
Female fully immuno-competent C57BL/6J mice between 6-8 weeks of ages are obtained from the Animal Resources Centre (Perth, Australia) and maintained under SPF (specified pathogen free) housing conditions (Animal Care Unit, University of Western Australia).
AE17 cells were derived from the peritoneal cavity of C57BL/6J mice injected with asbestos fibres (Jackaman, 2003) and (Davis, 1992) and are injected subcutaneously at a concentration of 1×10^7 per mouse (Needham, 2006). […]

[1] = tested on: B16 melanoma, UV induced squamous carcinoma and Lewis lung carcinoma; details: 18 μg, 3 topical treatments (Ogbourne, 2004); cited from earlier work
skin = details: cited from earlier work

Compound | AE17 tumour growth, components applied singly with DMSO (AE17 mesothelioma) | tumour regression [1] | skin reaction on topical application (skin)
CC12CCC(CC1)C(C)(C)O2 [1,8-cineole] | lack of efficacy |  | 
C/C=C(/C)C(=O)O[C@H]1C(C)=C[C@]23C(=O)[C@@H](C=C(CO)[C@@H](O)[C@]12O)[C@H]1[C@@H](C[C@H]3C)C1(C)C [3-Ingenyl-Angelate] |  | induces tumour regression with just 3 topical treatments | elicits skin irritation
CC(C)Cn1cnc2c(N)nc3ccccc3c21 [Imiquimod] |  |  | redness, drying and scabbing
Cc1ccc(C(C)C)cc1 [p-cymene] | lack of efficacy |  | 
CC1=CCC(O)(C(C)C)CC1 (centres unmarked) [terpinen-4-ol] | lack of efficacy |  | 
CC1=CC=C(C(C)C)CC1 [α-terpinene] | lack of efficacy |  | 
CC1=CCC(C(C)C)=CC1 [γ-terpinene] | lack of efficacy |  | 
